# Like-named read-outs stand apart in the source and are kept apart here.
# Experiments:
# SCD1 = assay: Measurement of SCD1 expression in SZ95-SCD1-HiBit cells (HiBiT assay); assay type: cell-based; conditions: Homo sapiens, 48 h; for EC50: SCD1 protein production, luminescence, initial dilution 1:3 in DMSO, read-out: HiBit EC50
# Description: Measurement of SCD1 Expression in SZ95-SCD1-HiBit Cells
# SCD1 expression levels in SZ95 cells were quantitated using the HiBiT system (Promega) in which a small peptide sequence (SmBiT) with a larger protein (LgBiT) reconstitutes luciferase activity and can generate a luminescent signal used for quantitation. SZ95-SCD1-HiBit cells were generated by editing the SCD1 gene of SZ95 cells resulting in the addition of an 8 amino acid linker sequence (gssggssg, SEQ ID NO:1) followed by an 11-amino acid SmBiT sequence (vsgwrlfkkis, SEQ ID NO:2) at the carboxy-terminus of the SCD1 protein. The gRNA targeting sequence used was […] (SEQ ID NO: 3) and the SCD1 insertion oligonucleotide encoding the SmBiT sequence was:
# SZ95-SCD1-HiBit cells were seeded in 384-well cell culture white plates at a density of 3000 cells/30 μl. Water was added to edge wells to avoid evaporation. Cells were incubated in a humidified incubator with 5% CO2 at 37° C. overnight. Tested compounds were diluted at a ratio of 1:3 in DMSO using an Agilent BRAVO Automated Liquid Handling Platform and, after further serial dilutions, added to cells at final concentrations starting from 18 μM. 2-(3-(3-((2-chloro-3-(trifluoromethyl)benzyl)(2,2-diphenylethyl)amino)propoxy)phenyl)acetic acid was used as a reference compound in each plate. Cells in the assay plate were incubated in a humidified incubator with 5% CO2 at 37° C. for 48 h.
# The assay plates were removed from the incubator and allowed to equilibrate to room temperature. Nano-Glo® HiBiT Detection Reagent (Promega; a mixture of Nano-Glo HiBiT Detection Buffer, Nano-Glo HiBiT Detection Substrate, and LgBiT protein, according to the manufacturer's instructions) was added into assay plates, at a volume equal to cell culture medium in each well. Plates were placed on an orbital shaker at a speed of 300-600 rpm for 10 min at room temperature, and read on an EnVision Plate Reader using luminescence detection with a 1 second read time.
# The assay measures the increase in SCD1 protein production in vitro. Amax refers to the percent EC50 of the tested compound compared to a reference compound, 2-(3-(3-((2-chloro-3-(trifluoromethyl)benzyl)(2,2-diphenylethyl)amino)propoxy)phenyl)acetic acid.
# SZ95 sebocytes = assay: Sentinel Lipid Assay (SLA), desaturation index in SZ95 sebocytes; assay type: cell-based; conditions: Homo sapiens, 72 h; for EC50: desaturation index, lowest dose used 4.6 nM, read-out: SLA EC50
# Description: Sentinel Lipid Assay (SLA)
# The sentinel lipid assay was used quantify the change in the global desaturation index in SZ95 sebocytes upon administration of certain LXR agonist compounds provided herein. The assay measures a smaller subset of lipid analytes in meibum (termed “sentinel lipids”) which would model the global changes the population of both saturated and desaturated lipids in the cells. In order to define this smaller subset of lipids, a complete lipid profile was recorded on dose response curves (eight levels from 4 nM to 10 uM) of Compounds 1-72. An elastic net regression model was applied separately to both the saturated and desaturated lipids to determine the minimum combination of coefficients and analytes, which could be used to adequately model the total population of lipids. The elastic net model was able to reduce the behavior of 425 lipids to 11 lipids and the correlation between the desaturation indices observed using the complete set of lipids with from the 11 sentinel lipids was 0.96.
# A medium throughput assay was created using this reduced set of sentinel lipids. A single batch is defined as triplicate examples of three unique plates (i.e., a single batch of cells is used to create nine plates for LC-MSMS analysis). Lipids were extracted from the cells using a 1:1 mixture of methylene chloride/methanol containing 10 nM of deuterated standards of triglycerides, which are used as internal standards for quantitating the lipid abundance. The lipids were separated prior to mass spectrometric analysis using a five minute HPLC gradient. The abundance of the sentinel lipids and the internal standards are measured using multiple reaction monitor mode (MRM) on a triple quadrupole mass spectrometer. The data was transformed from total ion current to nmoles/10^6 cells, which are multiplied by the coefficients from the elastic net model to determine the effective desaturated and saturated content, and therein the desaturation index of the dosed cells. In order to compare compounds from multiple batches with one another, the measure raw desaturation index was normalized by dividing it by the desaturation index of the DMSO dosed cells, and all data was assessed as the fraction by which the compound increases the desaturation index above 1.
# SZ95 (immortalized human sebaceous gland cells) cells were seeded in Greiner bio-one 96-well polypropylene plates that were pre-treated with 50 μg/mL Human Plasma Fibronectin (Thermo Fisher Scientific) at a density of 10^4 cells/135 μl. Cells were incubated in a humidified incubator with 5% CO2 at 37° C. overnight. Test compounds were diluted at a ratio of 1:3 and added to cells at final concentrations starting from 10 μM. 2-(3-(3-((2-chloro-3-(trifluoromethyl)benzyl)(2,2-diphenylethyl)amino)propoxy)phenyl)acetic acid was used as a positive control reference compound in each plate. Cells in the assay plate were incubated in a humidified incubator with 5% CO2 at 37° C. for 72 h.
# Culture medium was removed from the cells and cells in culture plates were washed with ice cold phosphate buffered saline three times. Plates were heat sealed and stored in a −80° C. freezer prior to Sentinel lipid assay. The Amax value refers to the percent EC50 of the tested compound compared to a reference compound, 2-(3-(3-((2-chloro-3-(trifluoromethyl)benzyl)(2,2-diphenylethyl)amino)propoxy)phenyl)acetic acid.
# [1] = normalized Amax based on the reference compound Amax of 100%, read-out: HiBit Normalized Amax
# [2] = SZ95-SCD1-HiBit cells, compared to reference compound, read-out: HiBit Amax
# [3] = normalized Amax based on the reference compound Amax of 100%, read-out: SLA Normalized Amax
# [4] = SZ95 cells, compared to reference compound, read-out: SLA Amax
Compound,EC50 (SCD1; SZ95-SCD1-HiBit cells) [nM],EC50 (SZ95 sebocytes; SZ95 cells) [nM],Emax (SCD1; [1]) [%],Emax (SCD1; [2]) [%],Emax (SZ95 sebocytes; [3]) [%],Emax (SZ95 sebocytes; [4]) [%]
"CC(C)CS(=O)(=O)c1ccccc1Oc1ccc(-c2noc(CN3C(=O)N(CCN4CCOCC4)C4(CCN(Cc5ccc(O)cc5)CC4)C3=O)n2)cc1C(F)(F)F [Compound 20, 8-(4-hydroxybenzyl)-3-((3-(4-(2-(isobutylsulfonyl)phenoxy)-3-(trifluoromethyl)phenyl)-1,2,4-oxadiazol-5-yl)methyl)-1-(2-morpholinoethyl)-1,3,8-triazaspiro[4.5]decane-2,4-dione]",0.078,≤ 4.6,93.7,89.1,155,149
"CC(C)CS(=O)(=O)c1ccccc1Oc1ccc(-c2noc(CN3C(=O)N(CCN4CCOCC4)C4(CCN(Cc5cc(O)cc(O)c5)CC4)C3=O)n2)cc1C(F)(F)F [Compound 21, 8-(3,5-dihydroxybenzyl)-3-((3-(4-(2-(isobutylsulfonyl)phenoxy)-3-(trifluoromethyl)phenyl)-1,2,4-oxadiazol-5-yl)methyl)-1-(2-morpholinoethyl)-1,3,8-triazaspiro[4.5]decane-2,4-dione]",0.241,≤ 4.6,83.7,79.6,102,97.5
"CC(C)CS(=O)(=O)c1ccccc1Oc1ccc(-c2noc(CN3C(=O)N(CCN4CCOCC4)C4(CCN(C5CCN(C)CC5)CC4)C3=O)n2)cc1C(F)(F)F [Compound 22, 3-((3-(4-(2-(isobutylsulfonyl)phenoxy)-3-(trifluoromethyl)phenyl)-1,2,4-oxadiazol-5-yl)methyl)-8-(1-methylpiperidin-4-yl)-1-(2-morpholinoethyl)-1,3,8-triazaspiro[4.5]decane-2,4-dione]",1.83,≤ 4.6,135,129,160,154
"CCN1CCC2(CC1)C(=O)N(Cc1nc(-c3ccc(Oc4ccccc4S(=O)(=O)CC(C)C)c(C(F)(F)F)c3)no1)C(=O)N2CCN1CCOCC1 [Compound 24, 8-ethyl-3-((3-(4-(2-(isobutylsulfonyl)phenoxy)-3-(trifluoromethyl)phenyl)-1,2,4-oxadiazol-5-yl)methyl)-1-(2-morpholinoethyl)-1,3,8-triazaspiro[4.5]decane-2,4-dione]",0.05,≤ 4.6,117,111,164,158
"CC(C)CS(=O)(=O)c1ccccc1Oc1ccc(-c2noc(CN3C(=O)N(CCN4CCOCC4)C4(CCN(Cc5cccnn5)CC4)C3=O)n2)cc1C(F)(F)F [Compound 25, 3-((3-(4-(2-(isobutylsulfonyl)phenoxy)-3-(trifluoromethyl)phenyl)-1,2,4-oxadiazol-5-yl)methyl)-1-(2-morpholinoethyl)-8-(pyridazin-3-ylmethyl)-1,3,8-triazaspiro[4.5]decane-2,4-dione]",1.62,≤ 4.6,98.2,93.4,190,182
"CC(C)CS(=O)(=O)c1ccccc1Oc1ccc(-c2noc(CN3C(=O)N(CCN4CCOCC4)C4(CCN(CC5CCOCC5)CC4)C3=O)n2)cc1C(F)(F)F [Compound 26, 3-((3-(4-(2-(isobutylsulfonyl)phenoxy)-3-(trifluoromethyl)phenyl)-1,2,4-oxadiazol-5-yl)methyl)-1-(2-morpholinoethyl)-8-((tetrahydro-2H-pyran-4-yl)methyl)-1,3,8-triazaspiro[4.5]decane-2,4-dione]",0.796,≤ 4.6,96.3,91.6,113,108

# Now from value to compound, other results behind:
EC50 (SCD1; SZ95-SCD1-HiBit cells) [nM],EC50 (SZ95 sebocytes; SZ95 cells) [nM],Compound,Emax (SCD1; [1]) [%],Emax (SCD1; [2]) [%],Emax (SZ95 sebocytes; [3]) [%],Emax (SZ95 sebocytes; [4]) [%]
0.041,≤ 4.6,"CS(=O)(=O)c1ccccc1Oc1ccc(-c2noc(CN3C(=O)N(CCC4CCOCC4)C4(CCN(C5CCC5)CC4)C3=O)n2)cc1C(F)(F)F [Compound 17, 8-cyclobutyl-3-((3-(4-(2-(methylsulfonyl)phenoxy)-3-(trifluoromethyl)phenyl)-1,2,4-oxadiazol-5-yl)methyl)-1-(2-(tetrahydro-2H-pyran-4-yl)ethyl)-1,3,8-triazaspiro[4.5]decane-2,4-dione]",200,190,102,97.4
0.133,≤ 4.6,"O=C1N(Cc2nc(-c3ccc(Oc4ccccc4S(=O)(=O)CC4CCCO4)c(C(F)(F)F)c3)no2)C(=O)C2(CCN(C3CCC3)CC2)N1CCN1CCOCC1 (stereo not drawn) [Compound 18, 8-cyclobutyl-1-(2-morpholinoethyl)-3-((3-(4-(2-(((tetrahydrofuran-2-yl)methyl)sulfonyl)phenoxy)-3-(trifluoromethyl)phenyl)-1,2,4-oxadiazol-5-yl)methyl)-1,3,8-triazaspiro[4.5]decane-2,4-dione]",139,132,141,135
0.042,≤ 4.6,"O=C1N(Cc2nc(-c3ccc(Oc4ccccc4S(=O)(=O)CC4CCCO4)c(C(F)(F)F)c3)no2)C(=O)C2(CCN(C3CCC3)CC2)N1CCC1CCOCC1 (stereo not drawn) [Compound 19, 8-cyclobutyl-1-(2-(tetrahydro-2H-pyran-4-yl)ethyl)-3-((3-(4-(2-(((tetrahydrofuran-2-yl)methyl)sulfonyl)phenoxy)-3-(trifluoromethyl)phenyl)-1,2,4-oxadiazol-5-yl)methyl)-1,3,8-triazaspiro[4.5]decane-2,4-dione]",194,184,146,140
3.48,≤ 4.6,"CC(C)CS(=O)(=O)c1ccccc1Oc1ccc(-c2noc(CN3C(=O)N(CCN4CCOCC4)C4(CCN(C5CCN(C)C5)CC4)C3=O)n2)cc1C(F)(F)F (stereo not drawn) [Compound 23, 3-((3-(4-(2-(isobutylsulfonyl)phenoxy)-3-(trifluoromethyl)phenyl)-1,2,4-oxadiazol-5-yl)methyl)-8-(1-methylpyrrolidin-3-yl)-1-(2-morpholinoethyl)-1,3,8-triazaspiro[4.5]decane-2,4-dione]",85.1,80.9,176,169

# — US11427586B2, “1,2,4-oxadiazole derivatives as liver X receptor agonists” (NOVARTIS AG, priority 2019, dated 2022)
